Reference: article PMC9898036, “VIP152 is a selective CDK9 inhibitor with pre-clinical in vitro and in vivo efficacy in chronic lymphocytic leukemia” (Leukemia, 2022)
Positions count from the first letter of the chain named. pIC50: −log10 of the molar value. Like-named read-outs stand apart in the source and are kept apart here.

Tests used:
[1] = biological target: Histamine H3 (Homo sapiens, UniProt Q9Y5N1); assay: Eurofins Diversity Panel; assay type: binding; settings: hum, Conc. 10 μM
[2] = biological target: hERG potassium channel (Homo sapiens, UniProt Q12809); assay: Eurofins Diversity Panel; assay type: binding; settings: hum, Conc. 10 μM
[3] = biological target: DRAK2 (Homo sapiens, UniProt O94768); assay: KINOMEscan: DRAK2; assay type: binding; settings: 1000 nM, read-out: Percent Control
[4] = biological target: FGFR2 (Homo sapiens, UniProt P21802); assay: KINOMEscan: FGFR2; assay type: binding; settings: 1000 nM, read-out: Percent Control
[5] = biological target: ICK (Homo sapiens, UniProt Q9UPZ9); assay: KINOMEscan: ICK; assay type: binding; settings: 1000 nM, read-out: Percent Control
[6] = biological target: T1, ABL1 (Homo sapiens, UniProt P00519, T315I); assay: KINOMEscan: ABL1; assay type: binding; settings: read-out: Percent Control; for remaining binding at 0.1 µM: 100 nM; for remaining binding at 1 µM: 1000 nM
T1 sequence (P00519 229-512 T315I): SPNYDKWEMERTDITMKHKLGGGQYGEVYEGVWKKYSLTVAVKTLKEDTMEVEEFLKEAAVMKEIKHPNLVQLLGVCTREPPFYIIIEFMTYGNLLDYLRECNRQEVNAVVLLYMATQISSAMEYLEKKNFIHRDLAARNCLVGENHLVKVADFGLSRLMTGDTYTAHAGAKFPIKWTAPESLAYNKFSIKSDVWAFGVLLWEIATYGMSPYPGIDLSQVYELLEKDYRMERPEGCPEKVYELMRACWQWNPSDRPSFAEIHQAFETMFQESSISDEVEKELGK
Experimental: (§1) The structure and synthesis of VIP152 were recently described by Lücking et al.. (Fig. 1A); however, the selectivity of the molecule in cellular systems has yet to be explored. […] We also performed this experiment at 1000 nM, where CDK9 was inhibited at 99%. […] We found a strong concordance between our data and those of Lücking when comparing the most inhibited kinases. Potential off-target effects of VIP152 were next tested in vitro at a concentration of 10 µM for off-target activity against a broad range of receptors, transporters, ion channels, and enzymes (n = 138) using the Eurofins Diversity Panel.
(§2) Kinomescan Kinase Profiling Assay
(§3) Kinomescan Assay was performed at DiscoverRX and described in Fabian, et al. 2005, Nat.
(§4) Biotechnol. In brief, kinases were produced and subsequently tagged with DNA for qPCR detection.
(§5) Streptavidin-coated magnetic beads were bound to biotinylated kinase ligands to serve as a solid support.
(§6) VIP152 was dissolved in DMSO and tested across a 10 serial threefold dilution set and compared to a test compound and a DMSO control. Kinases which were inhibited by VIP152 would not be bound to the solid-support resulting in decreased substrate for the qPCR reaction. Kinome map was produced via TreeSpot Analysis from DiscoverRX. […]

[7] = biological target: ABL1 (Homo sapiens, UniProt P00519, Y253F); assay: KINOMEscan: ABL1; assay type: binding; settings: ABL1(Y253F)-phosphorylated, read-out: Percent Control
Experimental: as §1, §2, §3, §4, §5, §6

[8] = biological target: ABL1 (Homo sapiens, UniProt P00519, E255K); assay: KINOMEscan: ABL1; assay type: binding; settings: ABL1(E255K)-phosphorylated, read-out: Percent Control
Experimental: as §1, §2, §3, §4, §5, §6

[9] = biological target: T2, ABL1 (Homo sapiens, UniProt P00519, Q252H); assay: KINOMEscan: ABL1; assay type: binding; settings: read-out: Percent Control; for remaining binding at 0.1 µM: 100 nM; for remaining binding at 1 µM: 1000 nM
T2 sequence (P00519 229-512 Q252H): T1 sequence (P00519 229-512 T315I) with Q24H, I87T
Experimental: as §1, §2, §3, §4, §5, §6

[10] = tested on: ABL1; assay: KINOMEscan: ABL1; assay type: binding, human; settings: 1000 nM
Experimental: as §1, §2, §3, §4, §5, §6

[11] = tested on: Glutamate, NMDA, Agonism; assay: Eurofins Diversity Panel; assay type: binding; settings: rat, Conc. 10 μM
[12] = tested on: OSU-CLL; assay: MTS proliferation assay; assay type: cell-based; settings: Homo sapiens, 24, 48, and 72 h
[13] = biological target: ASK1 (Homo sapiens, UniProt Q99683); assay: KINOMEscan: ASK1; assay type: binding; settings: 1000 nM, read-out: Percent Control
[14] = biological target: CTK (Homo sapiens, UniProt P42679); assay: KINOMEscan: CTK; assay type: binding; settings: 1000 nM, read-out: Percent Control
[15] = biological target: SRC (Homo sapiens, UniProt P12931); assay: KINOMEscan: SRC; assay type: binding; settings: 100 nM, read-out: Percent Control
[16] = biological target: HPK1 (Homo sapiens, UniProt Q92918); assay: KINOMEscan: HPK1; assay type: binding; settings: 1000 nM, read-out: Percent Control
[17] = tested on: Glutamate, NMDA, Phencyclidine; assay: Eurofins Diversity Panel; assay type: binding; settings: rat, Conc. 10 μM
[18] = biological target: SgK110 (Homo sapiens, UniProt P0C264); assay: KINOMEscan: SgK110; assay type: binding; settings: 100 nM, read-out: Percent Control
[19] = biological target: TGFBR2 (Homo sapiens, UniProt P37173); assay: KINOMEscan: TGFBR2; assay type: binding; settings: 100 nM, read-out: Percent Control

Sequence of hERG potassium channel (Q12809 whole entry): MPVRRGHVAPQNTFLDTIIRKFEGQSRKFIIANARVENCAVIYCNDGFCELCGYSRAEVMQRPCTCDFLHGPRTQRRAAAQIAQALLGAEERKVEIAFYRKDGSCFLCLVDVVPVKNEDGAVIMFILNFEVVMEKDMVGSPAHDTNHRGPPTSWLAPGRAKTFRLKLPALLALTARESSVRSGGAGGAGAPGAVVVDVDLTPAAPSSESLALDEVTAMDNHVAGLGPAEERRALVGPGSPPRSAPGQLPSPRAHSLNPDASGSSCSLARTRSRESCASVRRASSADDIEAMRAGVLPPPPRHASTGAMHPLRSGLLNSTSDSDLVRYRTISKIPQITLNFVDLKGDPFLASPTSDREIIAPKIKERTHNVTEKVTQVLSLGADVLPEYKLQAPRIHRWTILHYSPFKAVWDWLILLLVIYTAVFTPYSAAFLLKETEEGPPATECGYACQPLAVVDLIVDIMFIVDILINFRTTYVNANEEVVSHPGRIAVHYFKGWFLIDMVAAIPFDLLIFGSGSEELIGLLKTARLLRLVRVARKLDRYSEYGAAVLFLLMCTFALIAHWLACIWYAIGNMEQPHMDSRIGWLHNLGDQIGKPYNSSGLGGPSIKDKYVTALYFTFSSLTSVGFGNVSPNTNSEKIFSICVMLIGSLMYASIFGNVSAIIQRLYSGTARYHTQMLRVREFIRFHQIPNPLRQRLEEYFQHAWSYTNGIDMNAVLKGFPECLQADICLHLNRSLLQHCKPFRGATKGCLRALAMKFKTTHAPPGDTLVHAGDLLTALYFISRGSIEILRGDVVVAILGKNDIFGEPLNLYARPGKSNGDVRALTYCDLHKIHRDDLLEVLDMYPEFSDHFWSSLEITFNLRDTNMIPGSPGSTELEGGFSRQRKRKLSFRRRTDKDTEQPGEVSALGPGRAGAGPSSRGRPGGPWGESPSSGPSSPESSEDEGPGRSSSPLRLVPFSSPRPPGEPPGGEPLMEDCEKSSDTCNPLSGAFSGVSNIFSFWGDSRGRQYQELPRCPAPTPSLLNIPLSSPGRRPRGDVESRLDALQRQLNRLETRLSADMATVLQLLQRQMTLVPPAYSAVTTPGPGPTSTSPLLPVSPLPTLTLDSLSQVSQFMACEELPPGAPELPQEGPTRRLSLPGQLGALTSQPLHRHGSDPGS
Sequence of ASK1 (Q99683 whole entry): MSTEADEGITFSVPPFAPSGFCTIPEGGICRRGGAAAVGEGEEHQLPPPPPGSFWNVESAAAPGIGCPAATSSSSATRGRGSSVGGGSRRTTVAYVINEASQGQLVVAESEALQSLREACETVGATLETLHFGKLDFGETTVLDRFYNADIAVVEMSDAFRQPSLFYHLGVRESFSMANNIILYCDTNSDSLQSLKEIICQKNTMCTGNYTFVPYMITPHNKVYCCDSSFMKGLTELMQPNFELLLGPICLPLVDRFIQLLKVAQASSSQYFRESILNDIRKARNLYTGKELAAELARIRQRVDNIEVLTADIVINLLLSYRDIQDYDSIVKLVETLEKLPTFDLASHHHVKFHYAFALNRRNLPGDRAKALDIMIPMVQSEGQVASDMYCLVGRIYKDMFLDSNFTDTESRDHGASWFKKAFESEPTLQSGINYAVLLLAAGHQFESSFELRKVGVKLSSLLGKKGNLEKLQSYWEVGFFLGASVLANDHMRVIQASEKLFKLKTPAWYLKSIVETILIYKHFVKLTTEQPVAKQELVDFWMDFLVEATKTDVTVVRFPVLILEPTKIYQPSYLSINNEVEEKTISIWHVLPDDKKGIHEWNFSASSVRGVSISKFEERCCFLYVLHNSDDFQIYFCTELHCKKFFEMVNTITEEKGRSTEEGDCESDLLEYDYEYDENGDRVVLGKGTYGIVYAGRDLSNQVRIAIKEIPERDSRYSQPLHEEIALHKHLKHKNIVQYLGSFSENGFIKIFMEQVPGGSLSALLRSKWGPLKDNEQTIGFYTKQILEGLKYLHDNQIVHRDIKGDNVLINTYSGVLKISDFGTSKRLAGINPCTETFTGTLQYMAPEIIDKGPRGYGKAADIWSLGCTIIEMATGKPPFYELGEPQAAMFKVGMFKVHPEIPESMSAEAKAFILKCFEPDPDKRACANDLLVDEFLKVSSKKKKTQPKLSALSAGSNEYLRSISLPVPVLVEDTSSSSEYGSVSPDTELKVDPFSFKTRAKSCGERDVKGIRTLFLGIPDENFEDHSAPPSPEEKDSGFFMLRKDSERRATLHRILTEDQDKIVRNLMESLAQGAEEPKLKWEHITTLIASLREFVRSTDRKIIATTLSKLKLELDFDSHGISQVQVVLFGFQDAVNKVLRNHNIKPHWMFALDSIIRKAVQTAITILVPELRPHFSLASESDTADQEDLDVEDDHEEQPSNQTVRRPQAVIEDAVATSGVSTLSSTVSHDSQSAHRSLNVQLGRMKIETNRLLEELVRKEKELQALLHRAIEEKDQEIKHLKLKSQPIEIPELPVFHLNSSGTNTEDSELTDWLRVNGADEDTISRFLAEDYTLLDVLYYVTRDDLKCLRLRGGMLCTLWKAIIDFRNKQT
Sequence of SgK110 (P0C264 whole entry): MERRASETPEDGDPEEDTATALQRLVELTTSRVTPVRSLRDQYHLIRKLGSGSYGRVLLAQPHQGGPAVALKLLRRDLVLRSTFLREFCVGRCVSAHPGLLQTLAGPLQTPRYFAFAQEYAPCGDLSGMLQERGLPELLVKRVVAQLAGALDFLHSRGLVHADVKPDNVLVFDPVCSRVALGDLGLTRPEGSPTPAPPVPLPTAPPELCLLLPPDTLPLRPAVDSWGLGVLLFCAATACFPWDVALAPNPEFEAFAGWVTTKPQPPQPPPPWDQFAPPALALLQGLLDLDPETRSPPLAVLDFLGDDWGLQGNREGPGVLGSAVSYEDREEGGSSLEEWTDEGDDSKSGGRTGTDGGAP
Sequence of DRAK2 (O94768 whole entry): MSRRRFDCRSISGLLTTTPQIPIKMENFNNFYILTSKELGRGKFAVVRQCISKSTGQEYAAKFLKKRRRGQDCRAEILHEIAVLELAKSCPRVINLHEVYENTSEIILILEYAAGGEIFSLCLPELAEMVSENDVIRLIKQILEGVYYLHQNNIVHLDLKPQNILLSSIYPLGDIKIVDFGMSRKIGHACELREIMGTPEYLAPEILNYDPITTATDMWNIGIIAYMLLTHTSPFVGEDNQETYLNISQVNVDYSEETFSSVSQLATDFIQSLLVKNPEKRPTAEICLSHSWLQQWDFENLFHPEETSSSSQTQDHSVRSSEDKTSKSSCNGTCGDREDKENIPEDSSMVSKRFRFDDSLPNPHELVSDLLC
Sequence of CTK (P42679 whole entry): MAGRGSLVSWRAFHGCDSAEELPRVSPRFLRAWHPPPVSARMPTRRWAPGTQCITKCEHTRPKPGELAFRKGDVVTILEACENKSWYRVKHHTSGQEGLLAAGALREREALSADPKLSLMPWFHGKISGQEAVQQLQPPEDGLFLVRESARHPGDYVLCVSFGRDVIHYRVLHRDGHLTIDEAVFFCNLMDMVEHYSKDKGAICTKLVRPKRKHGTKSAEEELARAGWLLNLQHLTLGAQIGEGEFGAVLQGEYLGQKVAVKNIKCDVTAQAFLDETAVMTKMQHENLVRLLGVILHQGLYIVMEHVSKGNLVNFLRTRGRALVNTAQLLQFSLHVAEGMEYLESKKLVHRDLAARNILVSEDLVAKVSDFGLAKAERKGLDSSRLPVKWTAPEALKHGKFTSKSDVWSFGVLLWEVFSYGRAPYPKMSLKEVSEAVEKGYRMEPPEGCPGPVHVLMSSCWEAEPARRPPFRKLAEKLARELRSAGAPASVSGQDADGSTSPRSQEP
Sequence of Histamine H3 (Q9Y5N1 whole entry): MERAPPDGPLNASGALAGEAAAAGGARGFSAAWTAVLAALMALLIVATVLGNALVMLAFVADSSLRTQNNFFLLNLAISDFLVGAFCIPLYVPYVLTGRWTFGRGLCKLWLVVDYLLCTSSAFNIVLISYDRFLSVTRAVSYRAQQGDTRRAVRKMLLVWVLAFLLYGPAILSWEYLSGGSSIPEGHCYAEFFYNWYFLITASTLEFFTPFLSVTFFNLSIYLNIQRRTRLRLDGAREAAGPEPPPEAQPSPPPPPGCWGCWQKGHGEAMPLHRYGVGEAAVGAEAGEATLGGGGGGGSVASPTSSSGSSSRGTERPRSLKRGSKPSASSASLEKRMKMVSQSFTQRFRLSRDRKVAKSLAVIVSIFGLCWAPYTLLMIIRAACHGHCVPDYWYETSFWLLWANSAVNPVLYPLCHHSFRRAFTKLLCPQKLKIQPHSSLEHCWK
Sequence of HPK1 (Q92918 whole entry): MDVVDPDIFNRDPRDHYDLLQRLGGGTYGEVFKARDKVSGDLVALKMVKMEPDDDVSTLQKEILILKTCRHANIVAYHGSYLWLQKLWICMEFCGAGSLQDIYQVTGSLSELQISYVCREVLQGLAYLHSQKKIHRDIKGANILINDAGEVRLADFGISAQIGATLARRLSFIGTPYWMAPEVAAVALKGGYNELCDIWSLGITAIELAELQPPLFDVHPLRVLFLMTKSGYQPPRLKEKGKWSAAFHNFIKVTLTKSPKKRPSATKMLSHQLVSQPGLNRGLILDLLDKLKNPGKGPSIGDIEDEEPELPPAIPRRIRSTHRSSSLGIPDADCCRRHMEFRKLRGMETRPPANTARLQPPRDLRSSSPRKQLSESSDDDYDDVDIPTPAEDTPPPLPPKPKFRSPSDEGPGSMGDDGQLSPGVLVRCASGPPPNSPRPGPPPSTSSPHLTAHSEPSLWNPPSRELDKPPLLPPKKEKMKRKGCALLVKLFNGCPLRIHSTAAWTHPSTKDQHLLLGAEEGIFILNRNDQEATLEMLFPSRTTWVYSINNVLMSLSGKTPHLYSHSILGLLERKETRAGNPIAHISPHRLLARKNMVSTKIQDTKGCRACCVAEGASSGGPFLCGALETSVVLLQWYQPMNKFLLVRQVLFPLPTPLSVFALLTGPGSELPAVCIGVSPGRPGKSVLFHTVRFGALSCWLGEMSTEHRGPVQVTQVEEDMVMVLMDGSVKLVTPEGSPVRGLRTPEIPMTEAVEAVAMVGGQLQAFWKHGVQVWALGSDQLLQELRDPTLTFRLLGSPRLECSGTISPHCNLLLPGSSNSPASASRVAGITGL

Which results are given for `COc1cc(F)ccc1-c1cc(Nc2cc(CS(C)(=N)=O)ccn2)ncc1F` (stereo not drawn) [VIP152]?
inhibition at 10 µM [1]: -4%; inhibition at 10 µM [2]: 26%; remaining binding at 1 µM [3]: 100%; remaining binding at 1 µM [4]: 70%; remaining binding at 1 µM [5]: 9%; remaining binding at 0.1 µM ([6]; ABL1(T315I)-nonphosphorylated): 96%; remaining binding at 1 µM ([6]; ABL1(T315I)-nonphosphorylated): 3.2%; remaining binding at 0.1 µM ([6]; ABL1(T315I)-phosphorylated): 95%; remaining binding at 1 µM ([6]; ABL1(T315I)-phosphorylated): 53%; remaining binding at 0.1 µM ([7]; 100 nM): 100%; remaining binding at 1 µM ([7]; 1000 nM): 45%; remaining binding at 0.1 µM ([8]; 100 nM): 83%; remaining binding at 1 µM ([8]; 1000 nM): 48%; remaining binding at 0.1 µM ([9]; ABL1(Q252H)-nonphosphorylated): 72%; remaining binding at 1 µM ([9]; ABL1(Q252H)-nonphosphorylated): 25%; remaining binding at 0.1 µM ([9]; ABL1(Q252H)-phosphorylated): 100%; remaining binding at 1 µM ([9]; ABL1(Q252H)-phosphorylated): 46%; inhibition of ABL1 [10]: 96.8%; % Inh. [11]: 3%; pIC50 [12]: ~7.00; remaining binding at 1 µM [13]: 97%; remaining binding at 1 µM [14]: 84%; remaining binding at 0.1 µM [15]: 100%; remaining binding at 1 µM [16]: 85%; % Inh. [17]: 5%; remaining binding at 0.1 µM [18]: 100%; remaining binding at 0.1 µM [19]: 100%
